Results reported in patent US20250092039A1, “GLUTARIMIDE-CONTAINING PAN-KRAS-MUTANT DEGRADER COMPOUNDS AND USES THEREOF” (Tiger Biotherapeutics Inc., priority 2022, published 2025).
Where two headings read alike, the source gives them in different places.

How the values were obtained:
KRAS-G12V/RAF1 = KRAS-G12V/RAF1 (Homo sapiens (Human), UniProt P01116, G12V); test: KRAS/RAF1 binding inhibition assay (AlphaScreen)
Summary of the method: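 IC50 comes from variable-slope nonlinear fits of % inhibition (relative to DMSO) against inhibitor concentration. The AlphaScreen signal tracks the interaction of GppNHp-bound KRAS G12V with the RAF1 RBD after 60 min at 4° C with compound in 2% DMSO final.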

SW620 cells = test: 3D cell growth inhibition of SW620 cells carrying endogenous KRAS G12V mutation (CellTiter-Glo 3D, GI50); type: cell-based; details: Homo sapiens, SW-620, 144 h, read-out: SW620 3D cell growth GI50
Summary of the method: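 […], compound exposure lasted 6 days at 37° C, added the day after plating from DMSO stocks over a concentration range. Cells: SW620, KRAS G12V, 3D culture.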

KRAS G12V = KRAS G12V (Homo sapiens (Human), UniProt P01116, G12V); test: KRAS G12V degradation in SW620 cells (Western blot, DC50); type: cell-based; details: 24 hours
KRAS G12V, sequence (P01116-2 other isoform, or with tags, fused parts or gaps G12V): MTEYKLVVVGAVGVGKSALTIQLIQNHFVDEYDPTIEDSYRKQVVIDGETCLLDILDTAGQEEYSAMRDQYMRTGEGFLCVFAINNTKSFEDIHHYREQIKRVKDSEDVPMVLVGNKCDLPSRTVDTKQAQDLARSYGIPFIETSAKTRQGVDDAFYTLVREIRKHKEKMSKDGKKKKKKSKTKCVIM
Summary of the method: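 KRAS levels were quantified by fluorescent Western blot as percent of the DMSO control after 24 h of compound exposure at 37° C in homozygous KRAS G12V SW620 cells. A four-parameter variable-slope fit of the dose-response gave the half-maximal degradation concentration.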

KRAS-G12V/RAF1, sequence (P01116-2 other isoform, or with tags, fused parts or gaps G12V): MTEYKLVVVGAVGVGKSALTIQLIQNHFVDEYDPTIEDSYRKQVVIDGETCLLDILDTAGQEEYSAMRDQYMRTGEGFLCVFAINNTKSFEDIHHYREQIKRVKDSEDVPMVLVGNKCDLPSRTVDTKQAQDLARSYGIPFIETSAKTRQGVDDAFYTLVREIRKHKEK

| SMILES | IC50 (KRAS-G12V/RAF1) | GI50 (SW620 cells; SW620 cells, 6 days) | DC50 (KRAS G12V) | GI50 (SW620 cells) |
| --- | --- | --- | --- | --- |
| CCc1cccc2cc(O)cc(-c3ncc4c(N5CCNC(=O)CC5)nc(OCC5(CN6CCC7(CC6)CC(CN6CCN(c8ccc9c(c8)CN([C@H]8CCC(=O)NC8=O)C9=O)CC6)C7)CC5)nc4c3F)c12 [Compound 128, (S)-3-(5-(4-((7-((1-(((7-(8-ethyl-3-hydroxynaphthalen-1-yl)-8-fluoro-4-(5-oxo-1,4-diazepan-1-yl)pyrido[4,3-d]pyrimidin-2-yl)oxy)methyl)cyclopropyl)methyl)-7-azaspiro[3.5]nonan-2-yl)methyl)piperazin-1-yl)-1-oxoisoindolin-2-yl)piperidine-2,6-dione] | > 200 nM | > 100 nM | > 100 nM |  |
| CCc1c(F)ccc2cc(O)cc(-c3ncc4c(N5CCC[C@@](C)(O)C5)nc(OCC5(CN6CCC7(CCN(CCc8cc(F)c(C9CCC(=O)NC9=O)c(F)c8)CC7)CC6)CC5)nc4c3F)c12 (stereo partly drawn) [Compound 56, 3-(4-(2-(9-((1-(((7-(8-ethyl-7-fluoro-3-hydroxynaphthalen-1-yl)-8-fluoro-4-((R)-3-hydroxy-3-methylpiperidin-1-yl)pyrido[4,3-d]pyrimidin-2-yl)oxy)methyl)cyclopropyl)methyl)-3,9-diazaspiro[5.5]undecan-3-yl)ethyl)-2,6-difluorophenyl) piperidine-2,6-dione] | < 20 nM |  | 1 to 10 nM | < 10 nM |
| CCc1c(F)ccc2cc(O)cc(-c3ncc4c(N5CCC[C@@](C)(O)C5)nc(OCC5(CN6CC7(CCN(C8CN(c9ccc%10c(c9)CN(C9CCC(=O)NC9=O)C%10=O)C8)CC7)C6)CC5)nc4c3F)c12 (stereo partly drawn) [Compound 172, 3-(5-(3-(2-((1-(((7-(8-ethyl-7-fluoro-3-hydroxynaphthalen-1-yl)-8-fluoro-4-((R)-3-hydroxy-3-methylpiperidin-1-yl)pyrido[4,3-d]pyrimidin-2-yl)oxy)methyl)cyclopropyl)methyl)-2,7-diazaspiro[3.5]nonan-7-yl)azetidin-1-yl)-1-oxoisoindolin-2-yl)piperidine-2,6-dione] | < 20 nM | < 10 nM | 1 to 10 nM |  |

Second part, led by results:

| IC50 (KRAS-G12V/RAF1) | GI50 (SW620 cells; SW620 cells, 6 days) | DC50 (KRAS G12V) | SMILES | GI50 (SW620 cells) |
| --- | --- | --- | --- | --- |
| 20 to 200 nM | > 100 nM | > 100 nM | C[C@@]1(O)CCCN(c2nc(OCC3(CN4CC(N5CC(N6CCN(c7ccc8c(c7)CN([C@H]7CCC(=O)NC7=O)C8=O)CC6)C5)C4)CC3)nc3c(F)c(-c4cc(O)cc5ccc(F)c(F)c45)ncc23)C1 [Compound 169, (S)-3-(5-(4-(1′-((1-(((7-(7,8-difluoro-3-hydroxynaphthalen-1-yl)-8-fluoro-4-((R)-3-hydroxy-3-methylpiperidin-1-yl)pyrido[4,3-d]pyrimidin-2-yl)oxy)methyl)cyclopropyl)methyl)-[1,3′-biazetidin]-3-yl)piperazin-1-yl)-1-oxoisoindolin-2-yl)piperidine-2,6-dione] |  |
| < 20 nM | < 10 nM | < 1 nM | CCc1c(F)ccc2cc(O)cc(-c3ncc4c(N5CCC[C@@](C)(O)C5)nc(OCC5(CN6CCC7(CC6)CN(C6CCN(c8ccc9c(c8)CN(C8CCC(=O)NC8=O)C9=O)CC6)C7)CC5)nc4c3F)c12 (stereo partly drawn) [Compound 155, 3-(5-(4-(7-((1-(((7-(8-ethyl-7-fluoro-3-hydroxynaphthalen-1-yl)-8-fluoro-4-((R)-3-hydroxy-3-methylpiperidin-1-yl)pyrido[4,3-d]pyrimidin-2-yl)oxy)methyl)cyclopropyl)methyl)-2,7-diazaspiro[3.5]nonan-2-yl)piperidin-1-yl)-1-oxoisoindolin-2-yl)piperidine-2,6-dione] |  |
| < 20 nM | 10 to 100 nM | 1 to 10 nM | CCc1c(F)ccc2cc(O)cc(-c3ncc4c(N5CCC[C@@](C)(O)C5)nc(OCC5(CN6CC7(CC(CN8CCN(c9ccc%10c(c9)CN([C@@H]9CCC(=O)NC9=O)C%10=O)CC8)C7)C6)CC5)nc4c3F)c12 [Compound 11, (R)-3-(5-(4-((2-((1-(((7-(8-ethyl-7-fluoro-3-hydroxynaphthalen-1-yl)-8-fluoro-4-((R)-3-hydroxy-3-methylpiperidin-1-yl)pyrido[4,3-d]pyrimidin-2-yl)oxy)methyl)cyclopropyl)methyl)-2-azaspiro[3.3]heptan-6-yl)methyl)piperazin-1-yl)-1-oxoisoindolin-2-yl)piperidine-2,6-dione] |  |
